The source of these data is patent US20090196918A1, “Liposomal formulations of hydrophobic lactone drugs in the presence of metal ions” (University of Kentucky Research Foundation, priority 2008, published 2009).

Data set [1] in a line: Release of DB-67 from liposomes (dialysis at 37° C., HPLC analysis). Type of data set: physicochemical.
Experimental: The drug/cyclodextrin solution was used to hydrate phospholipids (DSPC, 40 mg/ml) with vigorous shaking at 60° C. to form a suspension of multilamellar vesicles. The suspension was extruded through a high-pressure extruder to form unilamellar vesicles. […] A small amount of this micellar solution was added to the unilamellar vesicles following extrusion and incubated at 60° C. for 5 min. The vesicles were then cooled at room temperature and stored below 5° C. until use. Prior to use, liposomes were separated from unentrapped drug by passing through a gel filtration column which was pre-equilibrated with pH 7.4 “carbonated” phosphate buffered saline (PBS). “Carbonated” PBS was prepared at physiological concentration of carbonate, phosphate and sodium chloride such that the total solute concentration of the buffer was isoosmotic with that of whole blood. […] 100 μl samples were taken from inside the dialysis tube at various time intervals and diluted into 900 μl of ice-cold solution of methanol and acetonitrile (2:1, v/v) at -25° C. Following dilution samples were stored at -25° C. until HPLC analysis. […] Liposomes were separated from the unentrapped drug and HPβCD by size exclusion chromatography on Sephadex® columns. […] The pipette tip used for sampling was washed in the same quenching solution to transfer any adsorbed drug. […] Following dialysis, samples were withdrawn from the dialysis tube, diluted into methanol, and stored at -25° C. until HPLC analysis. […] The sampling and processing conditions were the same as in the pH-permeability studies described earlier. The effect of varying intravesicular pH on the apparent permeability was probed only at a single (50 mM) cyclodextrin concentration.
The conditions of data set [2]: animal data, intravenous administration; cited from earlier work.
Data set [3] is described as follows: Drug loading of DB-67 into liposomes by passive encapsulation.

The structures appear in SMILES notation. Bounds are passed on as bounds.

As to `CC[C@@]1(O)C(=O)OCc2c1cc1n(c2=O)Cc2c-1nc1ccc(O)cc1c2[Si](C)(C)C(C)(C)C` [DB-67, 7-t-butyldimethylsilyl-10-hydroxycamptothecin], the “drug retention in liposomes as a function of pH” value in data set [1] (increasing pH, intravesicular cyclodextrin constant at 50 mM (FIG. 4)) is on record as “increases drug retention”. Moreover, the “release profile of DB-67 from liposomes” value in data set [1] (liposomes prepared at pH 4, citrate buffer, 0.1 M hydroxypropyl-β-cyclodextrin (FIG. 2)) is listed as “uniform release profile”; in data set [1] (liposomes prepared at pH 7.4, citrate buffer, 0.1 M hydroxypropyl-β-cyclodextrin (FIG. 3)), “uniform release”. For the same molecule, the “lactone to total AUC” value in data set [2] is reported as over 90%. Further, the “DB-67 concentration of liposome suspension that could be prepared (loading)” value in data set [3] (absence of cyclodextrin, all drug is entrapped) came out at 0.05 mg/mL; in data set [3] (intraliposomal pH increased to 9.5, with hydroxypropyl-β-cyclodextrin), 1.4 mg/mL.
